Experimental data from ChEMBL document CHEMBL1275378, “Exploration of the active site of neuronal nitric oxide synthase by the design and synthesis of pyrrolidinomethyl 2-aminopyridine derivatives” (J Med Chem, 2010).

molecular target: T1, Nitric oxide synthase 3 (Bos taurus, UniProt P29473); test: Inhibition of bovine recombinant eNOS
T1 sequence (P29473 whole entry): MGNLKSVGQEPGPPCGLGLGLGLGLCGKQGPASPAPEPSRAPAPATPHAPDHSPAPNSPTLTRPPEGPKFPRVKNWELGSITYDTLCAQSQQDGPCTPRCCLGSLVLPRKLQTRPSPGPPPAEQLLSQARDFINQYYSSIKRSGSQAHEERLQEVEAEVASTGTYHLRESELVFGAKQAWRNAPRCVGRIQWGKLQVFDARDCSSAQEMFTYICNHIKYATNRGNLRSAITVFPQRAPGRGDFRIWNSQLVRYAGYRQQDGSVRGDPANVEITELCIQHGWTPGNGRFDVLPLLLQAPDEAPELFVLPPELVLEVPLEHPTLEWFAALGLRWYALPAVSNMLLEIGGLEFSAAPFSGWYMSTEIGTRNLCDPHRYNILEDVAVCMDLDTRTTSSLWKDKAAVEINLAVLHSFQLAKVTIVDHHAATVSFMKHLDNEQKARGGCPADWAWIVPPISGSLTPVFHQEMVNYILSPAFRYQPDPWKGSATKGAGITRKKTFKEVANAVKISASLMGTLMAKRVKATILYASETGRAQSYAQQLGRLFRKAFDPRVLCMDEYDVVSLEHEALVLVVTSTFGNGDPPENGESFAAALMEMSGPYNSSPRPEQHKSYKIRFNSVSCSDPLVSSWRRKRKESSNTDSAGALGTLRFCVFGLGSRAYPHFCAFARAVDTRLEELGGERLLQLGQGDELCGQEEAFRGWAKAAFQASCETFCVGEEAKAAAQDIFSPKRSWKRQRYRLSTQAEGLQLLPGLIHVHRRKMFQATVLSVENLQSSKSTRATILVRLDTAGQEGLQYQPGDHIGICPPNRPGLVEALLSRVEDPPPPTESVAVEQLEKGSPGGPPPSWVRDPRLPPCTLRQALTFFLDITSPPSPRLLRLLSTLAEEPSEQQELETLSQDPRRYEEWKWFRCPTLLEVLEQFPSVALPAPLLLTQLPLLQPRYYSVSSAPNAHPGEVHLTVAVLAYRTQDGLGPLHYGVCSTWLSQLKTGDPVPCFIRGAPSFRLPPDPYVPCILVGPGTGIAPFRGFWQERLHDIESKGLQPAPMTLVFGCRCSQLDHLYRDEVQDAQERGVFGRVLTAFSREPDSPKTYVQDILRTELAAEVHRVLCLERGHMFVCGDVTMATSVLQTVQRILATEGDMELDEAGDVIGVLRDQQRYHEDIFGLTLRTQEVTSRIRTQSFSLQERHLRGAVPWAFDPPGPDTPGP

Compound	Ki
Nc1cccc(C[C@H]2CNC[C@@H]2NC[C@@H](N)Cc2ccccc2)n1 (racemic)	1450 µM
Cc1cc(N)nc(C[C@H]2CNC[C@@H]2NCCN)c1 (racemic; form 1) [listing 1 of 2 here]	866 µM
Cc1cc(N)nc(C[C@H]2CNC[C@@H]2NCCNCc2ccc(C(F)(F)F)cc2)c1 (racemic)	61.2 µM
CN(C)CCN[C@H]1CNC[C@@H]1Cc1cccc(N)n1 (racemic)	242 µM
Nc1cccc(C[C@H]2CNC[C@@H]2O)n1 (racemic)	341 µM
Nc1cccc(C[C@H]2CNC[C@@H]2NCCNCc2ccccc2)n1 (racemic)	2910 µM
Cc1cc(N)nc(C[C@H]2CNC[C@@H]2NCCNCc2ccc(Cl)cc2Cl)c1 (racemic)	76.1 µM
Cc1cc(N)nc(C[C@H]2CNC[C@@H]2NCCNCc2ccc(Cl)c(Cl)c2)c1 (racemic)	63.2 µM
Nc1cccc(C[C@H]2CNC[C@@H]2N[C@H]2CCN(Cc3ccccc3)C2)n1 (racemic)	109 µM
NCCN1C[C@H](Cc2cccc(N)n2)[C@@H](NCCCO)C1 (racemic)	1700 µM
NCCN1C[C@H](Cc2cccc(N)n2)[C@H](NCCCO)C1 (racemic)	849 µM
Cc1cc(N)nc(C[C@H]2CNC[C@@H]2NCCCc2ccccc2)c1 (racemic)	85.2 µM
Nc1cccc(C[C@H]2CNC[C@@H]2N[C@@H]2CCN(Cc3ccccc3)C2)n1 (racemic)	171 µM
Nc1cccc(C[C@H]2CNC[C@@H]2N[C@H]2CCNC2)n1 (racemic)	625 µM

Now from value to molecule:

Ki	Compound
78.8 µM	Cc1cc(N)nc(C[C@H]2CNC[C@@H]2NCCNCc2ccc(F)cc2)c1 (racemic)
58.1 µM	Cc1cc(N)nc(C[C@H]2CNC[C@H]2N(C)CCNCc2ccc(Cl)cc2)c1 (racemic)
263 µM	Cc1cc(N)nc(C[C@H]2CNC[C@@H]2NCCN)c1 (racemic; form 2) [listing 1 of 2 here]
44.1 µM	Cc1cc(N)nc(C[C@H]2CNC[C@@H]2NCCNCCc2ccc(F)cc2)c1 (racemic)
1450 µM	Nc1cccc(C[C@H]2CNC[C@@H]2NC[C@H](N)Cc2ccccc2)n1 (racemic)
460 µM	Nc1cccc(C[C@H]2CNC[C@@H]2N[C@@H]2CCNC2)n1 (racemic)
202 µM	Cc1cccc(CNCCN[C@H]2CNC[C@@H]2Cc2cc(C)cc(N)n2)c1 (racemic)
109 µM	Cc1cc(N)nc(C[C@H]2CNC[C@@H]2NCCNCc2cccc(C(F)(F)F)c2)c1 (racemic)
122 µM	NCCN1C[C@H](Cc2cccc(N)n2)[C@H](NCCCc2ccccc2)C1 (racemic)
173 µM	NCCN1C[C@H](Cc2cccc(N)n2)[C@@H](NCCCc2ccccc2)C1 (racemic)
16.5 µM	Cc1cc(N)nc(C[C@H]2CNC[C@@H]2NC[C@H](C)NCc2ccc(Cl)cc2)c1 (racemic)

system: not listed separately; test: Selectivity ratio of IC50 for rat recombinant nNOS to IC50 for bovine recombinant eNOS

Compound	nNOS selectivity over eNOS (eNOS IC50 / nNOS IC50)
Nc1cccc(C[C@H]2CNC[C@@H]2NC[C@@H](N)Cc2ccccc2)n1 (racemic)	71
CN(C)CCN[C@H]1CNC[C@@H]1Cc1cccc(N)n1 (racemic)	15
Nc1cccc(C[C@H]2CNC[C@@H]2O)n1 (racemic)	49
Nc1cccc(C[C@H]2CNC[C@@H]2NCCNCc2ccccc2)n1 (racemic)	201
Cc1cc(N)nc(C[C@H]2CNC[C@@H]2NCCNCc2ccc(Cl)cc2Cl)c1 (racemic)	158
Cc1cc(N)nc(C[C@H]2CNC[C@@H]2NCCNCc2ccc(Cl)c(Cl)c2)c1 (racemic)	153
Nc1cccc(C[C@H]2CNC[C@@H]2N[C@H]2CCN(Cc3ccccc3)C2)n1 (racemic)	6
Cc1cc(N)nc(C[C@H]2CNC[C@@H]2NCCCc2ccccc2)c1 (racemic)	6
Nc1cccc(C[C@H]2CNC[C@@H]2N[C@@H]2CCN(Cc3ccccc3)C2)n1 (racemic)	7
Nc1cccc(C[C@H]2CNC[C@@H]2N[C@H]2CCNC2)n1 (racemic)	49

Other lines, results leading:

nNOS selectivity over eNOS (eNOS IC50 / nNOS IC50)	Compound
90.5	Cc1cc(N)nc(C[C@H]2CNC[C@@H]2NCCNCc2ccc(F)cc2)c1 (racemic)
370	Cc1cc(N)nc(C[C@H]2CNC[C@@H]2NCCNCCc2ccc(F)cc2)c1 (racemic)
105	Nc1cccc(C[C@H]2CNC[C@@H]2NC[C@H](N)Cc2ccccc2)n1 (racemic)
22	Nc1cccc(C[C@H]2CNC[C@@H]2N[C@@H]2CCNC2)n1 (racemic)
306	Cc1cccc(CNCCN[C@H]2CNC[C@@H]2Cc2cc(C)cc(N)n2)c1 (racemic)
147	Cc1cc(N)nc(C[C@H]2CNC[C@@H]2NCCNCc2cccc(C(F)(F)F)c2)c1 (racemic)
2.5	NCCN1C[C@H](Cc2cccc(N)n2)[C@H](NCCCc2ccccc2)C1 (racemic)
43	NCCN1C[C@H](Cc2cccc(N)n2)[C@@H](NCCCc2ccccc2)C1 (racemic)
28	Cc1cc(N)nc(C[C@H]2CNC[C@@H]2NC[C@H](C)NCc2ccc(Cl)cc2)c1 (racemic)

system: not listed separately; test: Selectivity ratio of IC50 for rat recombinant nNOS to IC50 for mouse recombinant iNOS

Compound	Ratio
Nc1cccc(C[C@H]2CNC[C@@H]2NC[C@@H](N)Cc2ccccc2)n1 (racemic)	20
Cc1cc(N)nc(C[C@H]2CNC[C@@H]2NCCCO)c1 (racemic)	8
CN(C)CCN[C@H]1CNC[C@@H]1Cc1cccc(N)n1 (racemic)	20
Nc1cccc(C[C@H]2CNC[C@@H]2O)n1 (racemic)	4
Nc1cccc(C[C@H]2CNC[C@@H]2NCCNCc2ccccc2)n1 (racemic)	11.5
Cc1cc(N)nc(C[C@H]2CNC[C@@H]2NCCNCc2ccc(Cl)cc2Cl)c1 (racemic)	92
Cc1cc(N)nc(C[C@H]2CNC[C@@H]2NCCNCc2ccc(Cl)c(Cl)c2)c1 (racemic)	57
Cc1cc(N)nc(C[C@H]2CNC[C@@H]2NCCN)c1 (racemic; form 2) [listing 2 of 2 here]	52.5
Nc1cccc(C[C@H]2CNC[C@@H]2N[C@H]2CCN(Cc3ccccc3)C2)n1 (racemic)	12
Cc1cc(N)nc(C[C@H]2CNC[C@@H]2NCCCc2ccccc2)c1 (racemic)	11
Nc1cccc(C[C@H]2CNC[C@@H]2N[C@@H]2CCN(Cc3ccccc3)C2)n1 (racemic)	12
Nc1cccc(C[C@H]2CNC[C@@H]2N[C@H]2CCNC2)n1 (racemic)	18

Other lines, results leading:

Ratio	Compound
31	Cc1cc(N)nc(C[C@H]2CNC[C@@H]2NCCNCc2ccc(F)cc2)c1 (racemic)
190	Cc1cc(N)nc(C[C@H]2CNC[C@@H]2NCCNCCc2ccc(F)cc2)c1 (racemic)
21.5	Nc1cccc(C[C@H]2CNC[C@@H]2NC[C@H](N)Cc2ccccc2)n1 (racemic)
9	Cc1cc(N)nc(C[C@H]2CNC[C@@H]2NCCN)c1 (racemic; form 1) [listing 2 of 2 here]
12	Nc1cccc(C[C@H]2CNC[C@@H]2N[C@@H]2CCNC2)n1 (racemic)
127	Cc1cccc(CNCCN[C@H]2CNC[C@@H]2Cc2cc(C)cc(N)n2)c1 (racemic)
79	Cc1cc(N)nc(C[C@H]2CNC[C@@H]2NCCNCc2cccc(C(F)(F)F)c2)c1 (racemic)
13	NCCN1C[C@H](Cc2cccc(N)n2)[C@H](NCCCc2ccccc2)C1 (racemic)
110	NCCN1C[C@H](Cc2cccc(N)n2)[C@@H](NCCCc2ccccc2)C1 (racemic)
35	Cc1cc(N)nc(C[C@H]2CNC[C@@H]2NC[C@H](C)NCc2ccc(Cl)cc2)c1 (racemic)
